What was measured:
[1] = target: T1, Progestogen receptor of the uterus of rabbits (Oryctolagus cuniculus, UniProt P06186); assay: Progestogen receptor binding (displacement of tritiated product R); design: species or system rabbit; conditions: for affinity for progestogen receptors (in words): conclusion
T1 construct: The uterus was removed, weighed and homogenized at 0° C; from tissue; host or cells: rabbit uterus, 105,000 g supernatant (estradiol-primed immature rabbits)
T1 sequence (P06186 1-930): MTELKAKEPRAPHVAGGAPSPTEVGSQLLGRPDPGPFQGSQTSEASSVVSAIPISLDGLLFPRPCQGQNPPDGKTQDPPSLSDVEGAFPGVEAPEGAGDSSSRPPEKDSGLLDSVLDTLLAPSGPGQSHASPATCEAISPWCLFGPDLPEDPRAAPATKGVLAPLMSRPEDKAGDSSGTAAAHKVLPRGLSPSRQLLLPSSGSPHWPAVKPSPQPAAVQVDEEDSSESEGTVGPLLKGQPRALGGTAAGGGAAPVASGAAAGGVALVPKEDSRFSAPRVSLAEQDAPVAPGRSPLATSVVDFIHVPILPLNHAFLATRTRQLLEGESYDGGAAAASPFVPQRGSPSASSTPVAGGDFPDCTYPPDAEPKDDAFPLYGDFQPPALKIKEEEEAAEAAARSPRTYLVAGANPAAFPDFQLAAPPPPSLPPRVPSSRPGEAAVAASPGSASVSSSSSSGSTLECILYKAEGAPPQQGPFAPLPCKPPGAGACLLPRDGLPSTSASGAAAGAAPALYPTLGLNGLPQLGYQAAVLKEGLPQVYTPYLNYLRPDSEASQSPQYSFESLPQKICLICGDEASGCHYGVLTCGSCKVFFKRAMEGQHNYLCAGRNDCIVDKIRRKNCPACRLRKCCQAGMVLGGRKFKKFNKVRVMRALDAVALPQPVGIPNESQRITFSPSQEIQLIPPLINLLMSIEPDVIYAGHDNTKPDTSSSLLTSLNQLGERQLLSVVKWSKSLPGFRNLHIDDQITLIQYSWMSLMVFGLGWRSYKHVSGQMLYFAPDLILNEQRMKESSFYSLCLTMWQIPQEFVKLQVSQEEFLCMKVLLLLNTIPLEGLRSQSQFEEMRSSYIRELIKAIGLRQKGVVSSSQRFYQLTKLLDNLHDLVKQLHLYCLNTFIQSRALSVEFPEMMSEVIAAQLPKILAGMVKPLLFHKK
Description: C. Progestogen receptor of the uterus of rabbits
Immature rabbits weighing about 1 kg received a cutaneous application of 25 μg of estradiol and the animals were killed 5 days later. The uterus was removed, weighed and homogenized at 0° C. with a polytetrafluoroethylene-glass Potter, in a buffered TS solution [Tris 10. mM, 0.25M of saccharose, HCl-pH of 7.4] with 1 g of tissue per 50 ml of TS. […] The concentration of tied tritiated R (B) was then measured for each incubate by the technique of adsoprtion on carbon-dextran.
(§1) The calculation of the relative affinity of […] (ARL) was identical for all of the above receptor tests. One traced the following two curves: the percentage of tied tritiated hormone B/T as a function of the logarithm of the cold hormone concentration and B/T as a function of the logarithm of the concentration of the cold test product. One determined the line of the equation. [formula]
(§2) The intersection of the I50 line and the curves permits one to determine the concentrations of the cold hormone of the reference (CH) and the cold test compound (CX) which inhibit by 50% the tieing of tritiated hormone with the receptor. The relative affinity of tieing (ARL) of the test product was determined by the equation: [formula]

[2] = target: T2, Estrogen receptor of uterus of mice (Mus musculus, UniProt P19785); assay: Estrogen receptor binding (displacement of tritiated estradiol)
T2 construct: the uterus were removed and homogenized at 0° C; from tissue; host or cells: mouse uterus, 105,000 g supernatant (immature females 18 to 21 days old)
T2 sequence (P19785 1-599): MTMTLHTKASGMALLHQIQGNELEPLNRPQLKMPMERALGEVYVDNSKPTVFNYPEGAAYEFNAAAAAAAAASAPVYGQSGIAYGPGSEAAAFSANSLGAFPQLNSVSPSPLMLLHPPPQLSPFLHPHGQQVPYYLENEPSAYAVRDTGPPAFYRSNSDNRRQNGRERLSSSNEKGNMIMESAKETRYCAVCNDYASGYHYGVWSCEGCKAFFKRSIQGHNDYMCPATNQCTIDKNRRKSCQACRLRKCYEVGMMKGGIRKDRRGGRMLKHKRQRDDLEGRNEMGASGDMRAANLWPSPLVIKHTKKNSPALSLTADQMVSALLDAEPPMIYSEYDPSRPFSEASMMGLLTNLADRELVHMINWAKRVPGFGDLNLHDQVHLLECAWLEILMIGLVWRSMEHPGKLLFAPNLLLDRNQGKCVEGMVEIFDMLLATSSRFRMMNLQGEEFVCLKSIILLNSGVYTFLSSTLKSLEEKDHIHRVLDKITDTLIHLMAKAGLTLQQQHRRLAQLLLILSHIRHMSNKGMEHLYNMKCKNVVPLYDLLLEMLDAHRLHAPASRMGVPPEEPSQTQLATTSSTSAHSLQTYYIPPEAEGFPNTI
Description: E. Estrogen receptor of uterus of mice
Immature female mice 18 to 21 days old were killed and the uterus were removed and homogenized at 0° C. with a polytetrafluoroethylene-glass Potter in a buffered TS solution consisting of 10 mM, Tris, 0125M Saccharose, HCl for a pH of 7.4 at a rate of 1 g of tissue per 25 ml of TS. The homogenate was then ultracentrigued at 105,000 g for 90 minutes at 0° C. and aliquoits of the resulting […] were incubated at 0° C. for a time (t) with a constant concentration (T) of tritiated estradiol in the presence of increasing concentrations (0 to 1000×10^-9 M) of either cold estradiol or cold test compound. The concentration of tied tritiated estradiol (B) was measured for each incubate by the technique of adsorption on carbon-dextran.
as §1, §2

[3] = second table, incubation 2 H at 0° C.
[4] = second table, incubation 24 H at 0° C.

SMILES | relative affinity of tieing (ARL), Progestogen ([1]; incubation 2 H at 0° C.) | relative affinity of tieing (ARL), Progestogen ([1]; incubation 24 H at 0° C.) | relative affinity of tieing (ARL), Estrogen ([2]; incubation 2 H at 0° C.) | relative affinity of tieing (ARL), Estrogen ([2]; incubation 5 H (25° C.)) | affinity for progestogen receptors (in words) [1] | relative affinity of tieing (ARL), Progestogen [1, 3] | relative affinity of tieing (ARL), Progestogen [1, 4] | relative affinity of tieing (ARL), Estrogen [2, 3]
CC#C[C@]1(OC(C)=O)CC[C@H]2[C@@H]3CCc4cc(O)ccc4[C@H]3[C@@H](c3ccc(N(C)C)cc3)C[C@@]21C [2 (17 OAc), 11β-(4-dimethylaminophenyl)-17α-(prop-1-ynyl)-17β-acetoxy-Δ^1,3,5(10) -estratriene-3-ol] | 5 | 52 | < 0,1 | 0,1 |  |  |  | 
CC#C[C@]1(O)CC[C@H]2[C@@H]3CCC4=CC(=O)[C@H](C)CC4=C3[C@@H](c3ccc(N(C)C)cc3)C[C@@]21C [5 (2α), 2α-methyl-11β-(4-dimethylaminophenyl)-17α-(prop-1-ynyl)-Δ^4,9-estradiene-17β-ol-3-one] | 40 | 39 | < 0,1 | < 0,1 |  |  |  | 
CC#C[C@]1(O)CC[C@H]2[C@@H]3CCC4=CC(=O)[C@@H](C)CC4=C3[C@@H](c3ccc(N(C)C)cc3)C[C@@]21C [5 (2β), 2-methyl-11β-(4-dimethylaminophenyl)-17α-(prop-1-ynyl)-Δ^4,9-estradiene-17β-ol-3-one] | 44 | 44 | < 0,1 | < 0,1 |  |  |  | 
CC#C[C@]1(O)CC[C@H]2[C@@H]3CCC4=CC(=O)C(C)(C)CC4=C3[C@@H](c3ccc(N(C)C)cc3)C[C@@]21C [Example 1, 2,2-dimethyl-11β-(4-dimethylaminophenyl)-17α-(prop-1-ynyl)-Δ^4,9-estradiene-17β-ol-3-one] | 4 | 4 | < 0,1 | < 0,1 |  |  |  | 
CC#C[C@]1(O)CC[C@H]2[C@@H]3CCC4=CC(=O)[C@H](C)CC4=C3[C@@H](c3ccc(N(C)C)cc3)C[C@@]21C [Example 5, 2α-methyl-11β-(4-dimethylaminophenyl)-17α-(prop-1-ynyl)-Δ^4,9-estradiene-17β-ol-3-one] |  |  |  |  | very remarkable affinity |  |  | 
CC#C[C@]1(O)CC[C@H]2[C@@H]3CCC4=CC(=O)C(C#N)(C#N)CC4=C3[C@@H](c3ccc(N(C)C)cc3)C[C@@]21C [Example 9, 2,2-dicyano-11β-(4-dimethylaminophenyl)-17α-(prop-1-ynyl)-Δ^4,9-estradiene-17β-ol-3-one] | < 0,1 | < 0,1 | < 0,1 | < 0,1 |  |  |  | 
CC#C[C@]1(O)CC[C@H]2[C@@H]3CCC4=C(CCC(=O)C4)[C@H]3[C@@H](c3ccc(N(C)C)cc3)C[C@@]21C [Example 10, 11β-(4-dimethylaminophenyl)-17α-(prop-1-ynyl)-Δ^5(10) -estrene-17β-ol-3-one] | 27 | 62 | < 0,1 | < 0,1 |  |  |  | 
CC#C[C@]1(O)CC[C@H]2[C@@H]3CCC4=CC(=O)CCC4=C3[C@@H](c3ccc(N(C)C)cc3)C[C@@]21C [Example 19, 11β-[4-(N,N-dimethylamino)-phenyl]-17α-(prop-1-ynyl)-Δ^4,9-estradiene-17β-ol-3-one] |  |  |  |  | very remarkable affinity |  |  | 
C#C[C@@]1(O)CC[C@H]2[C@@H]3CCC4=CC(=O)CCC4=C3[C@@H](c3ccc(N(C)C)cc3)C[C@@]21C [Example 21, 11β-[4-(N,N-dimethylamino)-phenyl]-17β-ethynyl-Δ^4,9-estradiene-17α-ol-3-one] |  |  |  |  |  | 10 | 4,3 | 0
C=C(C)C#C[C@]1(O)CC[C@H]2[C@@H]3CCC4=CC(=O)CCC4=C3[C@@H](c3ccc(N(C)C)cc3)C[C@@]21C [Example 23, 11β-[4-(N,N-dimethylamino)-phenyl]-23-methyl-19,21-dinor-17α-Δ^4,9,23-cholatriene-20-yn-17β-ol-3-one] |  |  |  |  |  | 81 | 268 | 0
CN(C)c1ccc([C@H]2C[C@@]3(C)[C@@H](CC[C@@]3(O)C#CCl)[C@@H]3CCC4=CC(=O)CCC4=C32)cc1 [Example 25, 11β-[4-(N,N-dimethylamino)-phenyl]-21-chloro-19-nor-17α-Δ^4,9-pregnadiene-20-yne-17β-ol-3-one] |  |  |  |  | very remarkable affinity | 78 | 467 | 0
C[C@]12C[C@H](c3ccc([N+](C)(C)[O-])cc3)C3=C4CCC(=O)C=C4CC[C@H]3[C@@H]1CC[C@@]2(O)C#CCl [Example 26, N-oxide of 11β-[4-(N,N-dimethylamino)-phenyl]-21-chloro-19-nor-17α-Δ^4,9-pregnadiene-20-yne-17β-ol-3-one] |  |  |  |  |  | 6,3 | 8,3 | 0
C[C@]12C[C@H](c3ccc([N+](C)(C)[O-])cc3)[C@]34O[C@]35CCC(=O)C=C5CC[C@H]4[C@@H]1CC[C@@]2(O)C#CCl [Example 27, N-oxide of 11β-[4-(N,N-dimethylamino)-phenyl]-9α,10α-epoxy-21-chloro-19-nor-17α-Δ^4-pregnene-20-yne-17β-ol-3-one] |  |  |  |  |  | 0,6 | 0,4 | 0
CN(C)c1ccc([C@H]2C[C@@]3(C)[C@@H](CC[C@@]3(O)C#Cc3ccccc3)[C@@H]3CCC4=CC(=O)CCC4=C32)cc1 [Example 29, 11β-[4-(N,N-dimethylamino)-phenyl]-21-phenyl-19-nor-17α-Δ^4,9-pregnadiene-20-yne-17β-ol-3-one] |  |  |  |  |  | 41 | 250 | 0
